Assay results: patent US20120190707A1, “SELECTIVE INHIBITORS OF AKT AND METHODS OF USING SAME” (priority 2008, published 2012)

Columns and labels:
p38.alpha = p38.alpha (Homo sapiens, UniProt Q16539); assay: Activity of other protein kinases: p38.alpha; format: biochemical; settings: 100 micro.M
JNK = assay: Activity of other protein kinases: JNK; format: biochemical; settings: 100 micro.M
Description: We recently reported on the direct evaluation of a number of in silico approaches to identify AKT inhibitors (Forino et al., 2005) We achieved experimental validation of selected compounds using both a fluorescence-based enzymatic assay and a substrate phosphorylation assay involving the protein GSK-3 (Forino et al., 2005). Briefly, the virtual docking approach consists of selecting the top 4,000 out of 50,000 docked compounds, using a variety of computational docking approaches, including a consensus score among two different scoring functions (Forino et al., 2005). Of those, 100 compounds were selected based on ranking and favorable docking geometry.

PRAS40 = assay: IGF-1 induced PRAS40 phosphorylation by western analysis in 29-1 cells; format: cell-based, human; settings: IGF-1 (20 ng/mL), 10.micro.M
Description: FIG. 6 describes the effect of BI-69A11 on phosphorylation and total levels of AKT in UACC 903 (PTEN−) cells. (A) UACC903 and the modified clone 29-1 (PTEN+) cells were exposed to 10 micro.M BI-69A11 and 50 micro.M LY294002 (a PI3K inhibitor) and the levels of pAKT473 and total AKT determined by western analysis. […] (SF=Serum Free). (B) BI-69A11 inhibits PRAS40 phosphorylation. UACC903 melanoma cells or 29-1 cells (PTEN+) were subjected to treatment with IGF-1 (20 ng/mL) and the level of PRAS40 phosphorylation was assessed. […] The cells were collected, lysed and levels of pPRAS40 and total PRAS40 determined by western analysis. (C) AKT association with HSP90 is inhibited by BI-69A11. Human melanoma cells were treated with BI-69A11 (10.micro.M) or DMSO control for 4 h, followed by protein preparation and immunoprecipitation using antibodies to pan-AKT. MG132 treatment, when used, initiated 1 h prior to treatment and lasted up to the preparation of proteins (total of 5 h). The right panel depicts analysis of total lysates.
We next tested the effect of BI-69A11 in 29-1 cells which are derivative of UAC903 that were reconstituted with chromosome 10 carrying the wt PTEN. Thus, 29-1 cells no longer express a constitutively active form of AKT (Robertson et al., 1998). To activate AKT, 29-1 cells were treated with IGF-1 (FIG. 6B). […]

NF-kB pathway = assay: TNF-α stimulated NF-kB pathway (IKK, IkB) western analysis in UACC903 cells; format: cell-based, human; settings: 10 μM for 1 h prior to 20 ng/ml TNF-α
Description: UACC903 melanoma cells were exposed to 10 μM BI-69A11 or vehicle control for 1 h prior to treatment with 20 ng/ml TNF-α. Cells were harvested at the indicated time points and whole cell lysates were subjected to western analysis for phosphorylated IKK, total IKK, phosphorylated IkB, total IkB, and PLCγ (as loading control).
FIG. 11 describes how selected BI-69A11 analogs inhibit the NFkB pathway. UACC903 melanoma cells were exposed to vehicle control, 10 μM BI-69A11, or 10 μM analog for 1 h prior to stimulation with 20 ng/ml TNF-α as indicated. Cells were harvested at 5 min post-stimulation and whole cell lysates were subjected to western analysis for phosphorylated IKK, total IKK, phosphorylated IkB, total IkB, and […] (as loading control).
We first tested whether BI-69A11 inhibited the activation of the canonical NF-kB pathway (FIG. 10) in intact cells. […] In contrast, in cells treated with BI-69A11, both IKK and IkB phosphorylation were inhibited in response to TNF-a stimulation. Furthermore, the degradation of IkB protein was inhibited.
We next tested the ability of selected BI-69A11 analogs to inhibit the NF-kB pathway (FIG. 11). In this experiment, UACC903 cells were treated with vehicle, BI-69A11 or analog, stimulated with TNF-a, and harvested at 5 minutes post-stimulation. […]

Sequence of p38.alpha (Q16539 whole entry): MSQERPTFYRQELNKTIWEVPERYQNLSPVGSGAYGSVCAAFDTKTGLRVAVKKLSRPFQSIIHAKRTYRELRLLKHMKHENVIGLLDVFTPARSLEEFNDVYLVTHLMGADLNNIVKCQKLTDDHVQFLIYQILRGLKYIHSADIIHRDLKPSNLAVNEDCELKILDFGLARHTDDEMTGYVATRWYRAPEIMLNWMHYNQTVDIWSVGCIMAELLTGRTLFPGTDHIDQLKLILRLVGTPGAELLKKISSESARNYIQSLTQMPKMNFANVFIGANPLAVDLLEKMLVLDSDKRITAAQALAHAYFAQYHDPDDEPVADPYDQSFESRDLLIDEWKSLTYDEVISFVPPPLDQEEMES

O=C(/C=C/c1nc2ccccc2[nH]1)c1c(O)nc2ccc(Cl)cc2c1-c1ccccc1 [Compound 2, (E)-3-(3-(1H-benzo[d]imidazol-2-yl)acryloyl)-6-chloro-4-phenylquinolin-2(1H)-one]
effect on p38.alpha activity (p38.alpha): did not affect
effect on JNK activity (JNK): did not affect
phosphorylation of PRAS40 (PRAS40): effectively inhibited
degradation of IkB protein (NF-kB pathway): inhibited
IKK and IkB phosphorylation in response to TNF-a stimulation (NF-kB pathway; time course): inhibited
